Experimental findings from PMC10119282, “Molecular characterization of AIFM2/FSP1 inhibition by iFSP1-like molecules” (Cell Death & Disease, 2023) are described below.

Each structure is given as a SMILES string.

For series [1], the system named is Pfa1 Gpx4−/− overexpressing mFSP1 L360F. The series is described as follows: Cell viability (Alamar blue), mFSP1 L360F. It is filed as cell-based, murine. On the procedure: (§1) Cell Lines. 4-hydroxytamoxifen (TAM)-inducible Gpx4^−/− murine immortalized fibroblasts (Pfa1) were reported previously. These cells harbor two loxP-flanked Gpx4 alleles and stably express TAM inducible Cre recombinase allowing the genetic deletion of Gpx4 at will. For all experiments using Gpx4^−/− the well were treated with 4-hydroxitamoxifen (TAM) 1 µM. All cells were cultured with were cultured in DMEM-high glucose (4.5 g glucose/L) with 10% fetal bovine serum (FBS), Glutamax, and 1% penicillin/streptomycin (Gibco, Thermo Fischer) at 37 °C with 5% CO2 and verified to be negative for mycoplasma.
(§2) Cell viability assays. Alamar Blue method: Cells were seeded on 96-well plates (2000 cells per well) and treated with the compounds RSL3, iFSP1 and (liproxstatin-1) after plating. Cell viability was assessed 48 h (unless stated otherwise) after treatment using Alamar Blue as an indicator of viable cells. Alamar blue solution was made by dissolving of 1 g resazurin sodium salt (Thermo Fischer) in 200 mL sterile PBS and sterile filtrated through a 0.22 µm filter. Stock solutions were stored at 4 °C. The working solution was made freshly by adding 200 µL of the stock solution to 25 mL growth media. After 2–4 h incubation time, viability was estimated by measuring the fluorescence using a 540/35 excitation filter and a 590/20 emission on a Spark® microplate reader (Tecan, Zürich, Switzerland).

The test system of series [2] is Pfa1 Gpx4−/− overexpressing chimeric FSP1 C5. Briefly: Cell viability (Alamar blue), chimeric construct C5. It is filed as cell-based, murine. The note with it: Mus musculus; chimeric construct C5 (human residues 241 to 300); x axis iFSP1 (μM); read-out: IC50 (dose-response toxicity). On the procedure: as §1
as §2, with “Switzerland). […]” for “Switzerland).”
A general note: The colour change of resazurin is a common sign of viable cells or microbes.

The test system of series [3] is Pfa1 Gpx4−/− overexpressing hFSP1 Y296A. Briefly: Cell viability (Alamar blue), hFSP1 Y296A. It is filed as cell-based, murine. The procedure: as §1, §2
The next series in a line: Water solubility. It is filed as physicochemical.
Series [4] deals with Pfa1 Gpx4−/− overexpressing hFSP1 F360A. The series is described as follows: Cell viability (Alamar blue), hFSP1 F360A. It is filed as cell-based, murine. The procedure:
as §1, §2

Series [5] has as its system Pfa1 Gpx4−/− overexpressing chimeric FSP1 C4. The series is described as follows: Cell viability (Alamar blue), chimeric construct C4. It is filed as cell-based, murine. The following applies: Mus musculus; chimeric construct C4 (human residues 181 to 240); x axis iFSP1 (μM); read-out: IC50 (dose-response toxicity). On the procedure: as §1
as §2, with “Switzerland). […]” for “Switzerland).”

Series [6] relates to Pfa1 Gpx4−/− overexpressing chimeric FSP1 C6. The series is described as follows: Cell viability (Alamar blue), chimeric construct C6. It is filed as cell-based, murine. On the procedure: as §1
as §2, with “Switzerland). […]” for “Switzerland).”

Series [7] deals with Pfa1 Gpx4−/− overexpressing hFSP1 F360L. Briefly: Cell viability (Alamar blue), hFSP1 F360L. It is filed as cell-based, murine. The procedure: as §1, §2
The test system of series [8] is Pfa1 Gpx4−/− overexpressing hFSP1 Y296A/F360A. Briefly: Cell viability (Alamar blue), hFSP1 Y296A/F360A. It is filed as cell-based, murine. On the procedure:
as §1, §2

Series [9] has as its system Pfa1 Gpx4−/− overexpressing mFSP1 K319Q. The series is described as follows: Cell viability (Alamar blue), mFSP1 K319Q. The note with it: Mus musculus, x axis iFSP1 (μM), read-out: IC50 (dose-response toxicity). It is filed as cell-based, murine. On the procedure: as §1, §2
For series [10], the system named is Pfa1 Gpx4−/− cells overexpressing human FSP1 (hFSP1). Briefly: Cell viability (Alamar blue), dose-response toxicity in Gpx4-knockout cells expressing hFSP1. It is filed as cell-based, murine. On the procedure:
as §1, §2
Codon-optimized Mus musculus (mouse) FSP1 (NP_001034283.1) and Homo sapiens (Human) FSP1 (NP_001185625.1) were synthesized by IDT as gBlocks^TM and subcloned into p442-IRES-blast vectors. The chimera constructs were generated based on the pairwise alignment between the gene of Homo sapiens (Human) and the Mus musculus (Mouse), all the chimeric constructs contain the murine isoform with one region exchanged to the human isoform. […]

Series [11] concerns Pfa1 Gpx4−/− cell line overexpressing hFSP1, mFSP1 and hFSP1 F360L mutants. Briefly: BODIPY 581/591 C11 oxidation (flow cytometry). It is filed as cell-based, murine. The following applies: iFSP1 3 µM for 3 h; all conditions, highest for hFSP1 WT. On the procedure:
In total, 150,000 cells per well were seeded on 6-well dishes one day prior to the experiment. […] Cells were incubated with C11-BODIPY (581/591) (1 μM) for 30 min at 37 °C before they were harvested by trypsinisation. Subsequently, cells were resuspended in 500 μL of fresh PBS (DPBS, Gibco) and analyzed using a 488-nm laser excitation laser and fluorescence recorded on a (FACS Canto II, BD Biosciences). Data was collected from the FL1 detector (C11-BODIPY, Invitrogen) with a 502LP and 530/30 BP filter. At least 20,000 events were analyzed per sample. Data was analyzed using FlowJo Software version 10.8.1.

The subject of series [12] is Pfa1 Gpx4−/− cells overexpressing murine FSP1 (mFSP1). The series is described as follows: Cell viability (Alamar blue), dose-response toxicity in Gpx4-knockout cells expressing mFSP1. It is filed as cell-based. The procedure:
as §1
as §2, with “Switzerland). […]” for “Switzerland).”

Where [13] appears, read: Mus musculus, x axis iFSP1 (μM), read-out: IC50 (dose-response toxicity).

In the case of `Cc1ccc(-c2c(C#N)c(N)n3c(nc4ccccc43)c2C#N)cc1` [iFSP1], in [1], the “iFSP1-mediated inhibition of FSP1 (ferroptosis induction)” value was “restored the iFSP1-mediated inhibition of mFSP1”. In addition, the half-inhibitory concentration (IC50) (as a rule, the point on the concentration scale where inhibition reaches its midpoint) in [1] (setting [13]) came to 0.95 µM; in series [2], 6.82 µM; in series [3] (setting [13]) it was 5.62 µM; in series [4] (setting [13]) it was 5.62 µM; in [5], 8.96 µM; in series [6] (Mus musculus, chimeric construct C6 (human residues 301 till 373), x axis iFSP1 (μM), read-out: IC50 (dose-response toxicity)) it was 1.64 µM. For the same compound, the IC50 in [7] (setting [13]) stood at 6.18 µM; in [8] (setting [13]), 5.62 µM; in [9] it was 5.62 µM; in [10] (Mus musculus, hFSP1 WT, Δ curve (no Lip-1), Alamar blue, x axis iFSP1 (μM)) it was 0.45 µM; in series [12] (Mus musculus, mFSP1 WT, Δ curve (no Lip-1), Alamar blue, x axis iFSP1 (μM)), 7.48 µM. The “inhibitor activity (ferroptosis induction)” value in series [3], in series [4] and in series [8] was “abolishes the inhibitor activity” throughout. Moreover, the water solubility result in the series “Water solubility” is listed as “poor”. Besides, the induction of ferroptosis entry in [6] (chimera C6) is “underwent ferroptosis upon iFSP1 treatment”; in series [10] (human isoform), “induce ferroptosis”; in series [12] (murine isoform) it was “could only induce ferroptosis in the cell line expressing the human isoform”. Further, the “capacity to induce ferroptosis” value in [7] is listed as “completely abolished the capacity of iFSP1 to induce ferroptosis”. For the same compound, the “BODIPY-C11 oxidation induced by iFSP1” value in series [11] is recorded as “small increase”.
